Data taken from patent US20100016221A1, “METHOD OF DEGRADING PROTEIN BY CHAPERONE-MEDIATED AUTOPHAGY” (RIKEN, priority 2008, published 2010).
“Also recorded” adds a separate entry of the source. Square brackets hold non-standard residues; d marks the D form. Ends that are not written are not given here. Peptide text beside a SMILES is read from it. * marks the point of attachment. Sta = CC(C)C[C@H](N)[C@@H](O)CC(=O)O; Isovaleryl = CC(C)CC(=O)*

How the values were obtained:
[1] = system: tNhtt-16Q; assay: Western blot of tNhtt-16Q levels in inducible Neuro2a cells; format: cell-based, human; details: inducible 16Q Neuro2a cells, transfection
Method: (§1) Mouse neuroblastoma (Neuro2a) cells were maintained in Dulbecco's modified Eagle's medium (Sigma) supplemented with 10% heat-inactivated fetal bovine serum (Sigma), 100 U/ml penicillin and 100 μg/ml streptomycin (Invitrogen) at 37° C. in an atmosphere containing 5% CO2 and 95% air. Establishment of stable Neuro2a cell lines with the ecdysone-inducible mammalian expression system (Invitrogen), that express tNhtt-EGFP-16Q (16Q Neuro2a cells), tNhtt-EGFP-150Q (150Q Neuro2a cells) and tNhtt-EGFP-150Q-nls (150Q-nls Neuro2a cells) has been described earlier (T. Nagai et al., supra, H. Doi et al., supra, E. A. Zemskov et al., J Neurochem. 87, 2 (2003)). Neuro2a cells were differentiated with 5mM dbcAMP (N^6, 2′-O-dibutyryladenosine-3′,5′-cyclic monophosphate sodium salt) (Nacalai Tesque) and induced to express tNhtt-polyQ with 2 μM ponasterone A (ponA; Invitrogen) for indicated times. Neuro2a/FRT/TR cell line was generated as described in the protocol for Flp-in/T-Rex system (Invitrogen). […]
(§2) Cells were washed twice with ice-cold PBS, scraped, and resuspended in lysis buffer (0.5% Triton X-100 in PBS, 0.5 mM phenylmethylsulfonyl fluoride, Complete protease inhibitor mixture (Roche Applied Sciences)). […] Immunoreactive proteins were detected with enhanced chemiluminescence reagents (Amersham Biosciences). […]

[2] = target: T1, tNhtt-62Q-kikGR protein (Homo sapiens, UniProt P42858, INS38QQQQQQQQQQQQQQQQQQQQQQQQQQQQQQQQQQQQQQQQQ); assay: Chase experiment in tNhtt-62Q-kikGR Neuro2a cells after photo-cleavage; format: cell-based; details: twelve hours after irradiation
T1 construct: inserting the htt exon 1 with 62Q (HD62); monomeric KikGR (mKikGR; KikGR BAD95669 with A17S, G32R, I37T, N39T, C116T, V126T, N161E, Q167E, H219Y, L222T, P223Y) (C); expressed in transfected cells; host or cells: Neuro2a/FRT/TR cells (Flp-in/T-Rex), doxycycline induced
Method: as §1, with “(2003)).” for “(2003)). Neuro2a cells were differentiated with 5mM dbcAMP (N^6, 2′-O-dibutyryladenosine-3′,5′-cyclic monophosphate sodium salt) (Nacalai Tesque) and induced to express tNhtt-polyQ with 2 μM ponasterone A (ponA; Invitrogen) for indicated times. Neuro2a/FRT/TR cell line was generated as described in the protocol for Flp-in/T-Rex system (Invitrogen).”
Neuro2a tNhtt-62Q-kikGR cells were induced for 24 hours, and then the 62Q-kikGR was cleaved by 5 minutes irradiation of the cells. Chase phase lasted for 12 hours before the cells were collected and analyzed.
as §2

[3] = target: T2, soluble tNhtt-60Q protein (Homo sapiens, UniProt P42858, INS38QQQQQQQQQQQQQQQQQQQQQQQQQQQQQQQQQQQQQQQ); assay: Chase experiment in 60Q Neuro2a cells (Western blot); format: cell-based; details: after 24 hours chase
T2 construct: N-terminal fragment of human huntington exon 1 (tNhtt) encoding 60 CAG repeats; expressed in transfected cells; host or cells: 60Q Neuro2a cells (mouse neuroblastoma), ponasterone A induced
Method: (§3) To determine whether tNhtt-polyQ degrades faster in the presence of RHQ, chase experiments were performed. Neuro2a were first induced to express tNhtt-polyQ for 20 hrs in case of 60Q and 12 hrs in case of 150Q cells and then transfected with the tested constructs. Four hours later, ponaA was removed; cells were washed with PBS and incubated in the medium containing dbcAMP (for differentiation) for 24 hrs. Cells were lysed and the levels of tNhtt-polyQ were analyzed by Western blotting.
(§4) Cells were washed twice with ice-cold PBS, scraped, and resuspended in lysis buffer (0.5% Triton X-100 in PBS, 0.5 mM phenylmethylsulfonyl fluoride, Complete protease inhibitor mixture (Roche Applied Sciences)). After incubating on ice for 30 minutes lysates were briefly sonicated. Equal amounts of protein were boiled for 5 minutes in 2× SDS-sample buffer, separated by 5-12% gradient SDS-PAGE and electrophoretically transferred to a polyvinylidene difluoride (PVDF) membrane (Millipore). The membranes were blocked in 5% skim milk in 0.05% Tween 20/Tris-buffered saline (TBST) and incubated with primary antibody (dilutions in accordance to manufacturer's recommendations) overnight at […]. […] Immunoreactive proteins were detected with enhanced chemiluminescence reagents (Amersham Biosciences). […]

[4] = system: polyQ inclusions in 150Q-nls Neuro2a cells (tNhtt-EGFP-150Q-nls); assay: ArrayScan quantification of polyQ inclusion formation in inducible 150Q-nls Neuro2a cells; format: cell-based, mouse; details: for decrease of the polyQ inclusion formation: 150Qnls Neuro2a cells, mRFP-tagged constructs, after 48 hours of differentiation and induction
Method: as §1, with “(Invitrogen). Neuro2a tNhtt-62Q-kikGR cell line was generated by transfecting Neuro2a/FRT/TR cells with the pFRT-HD62-KikGR and pOG44 (Invitrogen) constructs using Lipofectamine 2000 reagent and selected with 200 μg/ml hygromycin. The expression of the pFRT-tNhtt-62Q-KikGR was induced by 18 doxycycline treatment of the cells. For the photo-induced kikGR cleavage, cells were exposed to ˜400 nm wavelength for 5 minutes.” for “(Invitrogen).”
(§5) For the quantification of the inclusions, cells were grown in 24-well plates for indicated periods, fixed in 4% paraformaldehyde, washed and incubated with Hoechst 33258 at 1/1000 dilution in PBS. Cells were analyzed by ArrayScan® V^TI High Content Screening (HSC) Reader (Cellomics) using Target Activation BioApplication (TABA). TABA analyzes images acquired by a HSC Reader and provides measurements of the intracellular fluorescence intensity and localization on a cell-by-cell basis.
In each well, at least 10000 cells were counted and quantified for the presence of the inclusions. Nuclei stained with Hoechst 33285 provided the autofocus target and their count gave the exact number of the quantified cells. The screening itself consisted of two scans using Hoechst, FITC (for GFP) and TRITC (for RFP) fluorescence. Firstly, number of inclusions in transfected cells was calculated when fluorescent spots at size of at least 5 pixels (magnification 20× for cytoplasmic and 40× for nuclear aggregates) with average GFP intensity more than 1500 in the RFP background were counted. […] The percentage of the cells with aggregates was then calculated. When the constructs without mRFP were used for transfection, the procedure was same, except the RFP intensity was not measured. […] Data was generated from the quantification of more than 250,000 cells in each experimental set-up.

[5] = system: polyQ inclusions in 150Q Neuro2a cells (tNhtt-EGFP-150Q); assay: ArrayScan quantification of polyQ inclusion formation in inducible 150Q Neuro2a cells; format: cell-based, mouse; details: for decrease of inclusion formation: mRFP-tagged constructs, after 24 hours of differentiation and induction
Method: (§6) Mouse neuroblastoma (Neuro2a) cells were maintained in Dulbecco's modified Eagle's medium (Sigma) supplemented with 10% heat-inactivated fetal bovine serum (Sigma), 100 U/ml penicillin and 100 μg/ml streptomycin (Invitrogen) at 37° C. in an atmosphere containing 5% CO2 and 95% air. Establishment of stable Neuro2a cell lines with the ecdysone-inducible mammalian expression system (Invitrogen), that express tNhtt-EGFP-16Q (16Q Neuro2a cells), tNhtt-EGFP-150Q (150Q Neuro2a cells) and tNhtt-EGFP-150Q-nls (150Q-nls Neuro2a cells) has been described earlier (T. Nagai et al., supra, H. Doi et al., supra, E. A. Zemskov et al., J Neurochem. 87, 2 (2003)). Neuro2a cells were differentiated with 5mM dbcAMP (N^6, 2′-O-dibutyryladenosine-3′,5′-cyclic monophosphate sodium salt) (Nacalai Tesque) and induced to express tNhtt-polyQ with 2 μM ponasterone A (ponA; Invitrogen) for indicated times. Neuro2a/FRT/TR cell line was generated as described in the protocol for Flp-in/T-Rex system (Invitrogen). Neuro2a tNhtt-62Q-kikGR cell line was generated by transfecting Neuro2a/FRT/TR cells with the pFRT-HD62-KikGR and pOG44 (Invitrogen) constructs using Lipofectamine 2000 reagent and selected with 200 μg/ml hygromycin. The expression of the pFRT-tNhtt-62Q-KikGR was induced by 18 doxycycline treatment of the cells. For the photo-induced kikGR cleavage, cells were exposed to ˜400 nm wavelength for 5 minutes. Rat pheochromocytoma (PC12) cells were grown in the same conditions as Neuro2a cells, except for the serum composition of 5% of fetal bovine and 10% of horse serum (Sigma). All transient transfections were performed with Lipofectamine 2000 (Invitrogen) according to the manufacturer's instruction.
as §5
In each well, at least 10000 cells were counted and quantified for the presence of the inclusions. Nuclei stained with Hoechst 33285 provided the autofocus target and their count gave the exact number of the quantified cells. The screening itself consisted of two scans using Hoechst, FITC (for GFP) and TRITC (for RFP) fluorescence. Firstly, number of inclusions in transfected cells was calculated when fluorescent spots at size of at least 5 pixels (magnification 20× for cytoplasmic and 40× for nuclear aggregates) with average GFP intensity more than 1500 in the RFP background were counted. Secondly, nuclei were defined as the objects of interest and the cells with average intensity more than 50 within 3 pixels from the nucleus were selected for the analysis. The percentage of the cells with aggregates was then calculated. When the constructs without mRFP were used for transfection, the procedure was same, except the RFP intensity was not measured. Scanning was performed with triplicate or quadruplicate in each experimental condition. Data was generated from the quantification of more than 250,000 cells in each experimental set-up.

[6] = system: polyQ inclusions in 150Q Neuro2a cells; assay: Confocal imaging of tested constructs in 150Q Neuro2a cells; format: cell-based, mouse
Method: as §6, with “Rat pheochromocytoma (PC12) cells were grown in the same conditions as Neuro2a cells, except for the serum composition of 5% of fetal bovine and 10% of horse serum (Sigma). All transient transfections were performed with Lipofectamine 2000 (Invitrogen) according to the manufacturer's instruction.” left out

[7] = target: T3, tNhtt-150Q (Homo sapiens, UniProt P42858); assay: Western blot of polyQ aggregation (gel top) in 150Q Neuro2a cells; format: cell-based; details: expression of mRFP-tagged constructs
T3 construct: N-terminal fragment of human huntington exon 1 (tNhtt); expressed in transfected cells
Method: as §1, §2

[8] = target: T4, tNhtt-150Q polyQ protein (Homo sapiens, UniProt P42858); assay: Chase experiment in 150Q Neuro2a cells (Western blot); format: cell-based
T4 construct: N-terminal fragment of human huntington exon 1 (tNhtt); expressed in transfected cells
Method: as §3, §4

[9] = system: PC12 cells; assay: Inclusion formation of tNhtt-60Q-Venus with or without HSC70bm in PC12 cells; format: cell-based, rat; details: 10 mM 3MA, 10 μM pepstatin A
Method: The tNhtt-16Q-EGFP and tNhtt-150Q-EGFP plasmids for transient transfection were prepared by the introduction of the coding sequence into pcDNA3.1 vector (Invitrogen). […] HSC70bm were amplified with primers containing SalI in the forward and XmaI cutting site in the reverse primer from the 60QHsc construct. […] To produce molecules without mRFP tag, all constructs were amplified using primers containing BamHI in the forward and XbaI in the reverse primer, respectively, and introduced to pcDNA3.1 vector.
Rat pheochromocytoma (PC12) cells were grown in the same conditions as Neuro2a cells, except for the serum composition of 5% of fetal bovine and 10% of horse serum (Sigma). […]
In each well, at least 10000 cells were counted and quantified for the presence of the inclusions. […] The screening itself consisted of two scans using Hoechst, FITC (for GFP) and TRITC (for RFP) fluorescence. […] The percentage of the cells with aggregates was then calculated. When the constructs without mRFP were used for transfection, the procedure was same, except the RFP intensity was not measured. […]

[10] = system: 150Q Neuro2a cells; assay: Cell death assay (propidium iodide uptake) in 150Q Neuro2a cells; format: cell-based, mouse; details: after 60 hours of induction
Method: as §1
(§7) For quantification of cell death, 5 μg/ml each of Hoechst 33342 and propidium iodide (PI) were added to differentiated and induced Neuro2a cells transiently transfected with either of the tested constructs (FIG. 6A). After 10 minutes at 37° C., the number of cells with PI uptake over the total number of cells was calculated by ArrayScan.

[11] = system: 150Q-nls Neuro2a cells; assay: Cell death assay (propidium iodide uptake) in 150Q-nls Neuro2a cells; format: cell-based, mouse; details: after 48 hours of induction
Method: as §1, §7

T3 sequence (P42858 with tags, fused parts or gaps): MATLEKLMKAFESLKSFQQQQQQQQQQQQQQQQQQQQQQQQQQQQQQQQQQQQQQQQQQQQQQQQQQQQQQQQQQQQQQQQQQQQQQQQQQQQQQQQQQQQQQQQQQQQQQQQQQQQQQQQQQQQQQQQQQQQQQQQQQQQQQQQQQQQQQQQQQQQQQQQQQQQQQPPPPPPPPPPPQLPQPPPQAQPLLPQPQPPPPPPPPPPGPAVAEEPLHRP
T1 sequence (P42858 with tags, fused parts or gaps with the stated changes): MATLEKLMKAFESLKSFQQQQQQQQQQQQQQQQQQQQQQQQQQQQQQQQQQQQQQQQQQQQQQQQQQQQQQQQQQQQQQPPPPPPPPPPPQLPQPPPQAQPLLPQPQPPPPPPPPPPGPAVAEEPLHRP
T4 sequence (P42858 with tags, fused parts or gaps): as the sequence (P42858 with tags, fused parts or gaps) above
T2 sequence (P42858 with tags, fused parts or gaps with the stated changes): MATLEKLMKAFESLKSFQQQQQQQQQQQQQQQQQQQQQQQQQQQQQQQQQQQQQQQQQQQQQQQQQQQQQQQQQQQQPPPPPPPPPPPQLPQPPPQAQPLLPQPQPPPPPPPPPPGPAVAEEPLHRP

Compound	levels of tNhtt-16Q [1]	decrease of the polyQ inclusion formation [4] [%]	decrease of inclusion formation [5] [%]	localization relative to polyQ inclusions [6]	polyQ aggregation (gel top) [7]	influence of inhibitor on the effect of HSC70bm on 60Q aggregation [9]	further results
mRFP-HSC70bm-(QBP1)2 (MARVKKDQAEPLHRKFERQPPGSNWKWWPGIFDSNWKWWPGIFD; also: fused to mRFP) [RHQ]	not affected	48.5	56.5	co-localized with the polyQ inclusions	much stronger effect; also recorded: markedly decreased		decrease of full length (constitutively expressed) tNhtt-62Q-kikGR as compared to RQ [2]: 24%; decrease of levels of the cleaved form of tNhtt-62Q-kikGR protein as compared to RQ [2]: 45.6%; enhancement of degradation of soluble tNhtt-60Q protein as compared to R [3]: 43%; enhancement of degradation of soluble tNhtt-60Q protein as compared with RQ [3]: 37.4%; effect on polyQ aggregation after silencing of HSC70 and/or Lamp2a with shRNA ([5]; any knock-down combination): inhibited; clearance of aggregated and soluble polyQ ([8]; autophagy activation by serum withdrawal): almost complete clearance; degradation of the polyQ protein ([8]; chase 24 hours): enhanced degradation
mRFP-(QBP1)2 (MSNWKWWPGIFDSNWKWWPGIFD; also: fused to mRFP) [RQ, monomeric red fluorescent protein fused to (QBP1)2, reference compound]	not affected	21.5	38	co-localized with the polyQ inclusions	markedly decreased		
CC(C)CC(=O)N[C@H](C(=O)N[C@H](C(=O)N[C@@H](CC(C)C)[C@@H](O)CC(=O)N[C@@H](C)C(=O)N[C@@H](CC(C)C)[C@@H](O)CC(=O)O)C(C)C)C(C)C [pepstatin A] (Isovaleryl-VV[Sta]A[Sta]-OH)						alleviated the effect of HSC70bm	
(QBP1)2 (MSNWKWWPGIFDSNWKWWPGIFD) [reference compound]							reduction of aggregation compared to control counterparts (S and HS) ([4]; 150Q-nls Neuro2a cells, constructs without mRFP, 48 hours after induction): 24.7%; decrease of aggregation compared to control counterparts (S and HS) ([5]; constructs without mRFP, induced and differentiated for 24 hours): 32.6%; decrease of the percentage of PI-positive cells [10]: 12.3%; decrease of the percentage of PI-positive cells [11]: 17.7%
Cn1cnc(N)c2ncnc1-2 [3MA, 3-methyladenine]						did not	
